Reference: patent publication US11845724B2, “USP30 inhibitors and uses thereof” (Vincere Biosciences, Inc., priority 2019, dated 2023)
“And” between values parts separate entries of the source, which are not always exact repeats. Equal values may be shown once. Read-outs that look alike come from different tables or passages of the source.

Tests used:
[1] = target: recombinant USP30 (amino acids 57-517 of the human sequence) (Homo sapiens (Human), UniProt Q70CQ3); experiment: In vitro USP30 biochemical assay (Ubiquitin-Rhodamine)
[2] = system: differentiated RenCell VM; experiment: In-cell Tom20 loss assay; format: cell-based; settings: 20 h after compound addition
Procedure: To evaluate Tom20 loss following treatment with compounds and/or antimycin/oligomycin, a96-well plate assay was performed on differentiated RenCell VM. These were seeded into laminin-coated 96-well plates at 5000 cells/well in normal growth medium (ReNcell NSC maintenance medium+20 ng/ml FDF-2 and 20 ng/ml EGF). After 3 days, growth medium was replaced with differentiation medium (ReNCell NSC medium+0.1 mM dibutyryl cAMP and 2 ng/ml GDNF). On days 1 and 4 following addition of differentiation medium, the media was removed and replaced with fresh differentiation medium. On the 7th day compounds or DMSO were added, and 1 hour later, some wells also received additions of oligomycin (1 uM and antimycin (1 uM). 20 h after compound addition, cells were fixed by adding formaldehyde to a final concentration of […], incubated 20 minutes at room temperature, then washed with PBS. Blocking buffer (3% bovine serum albumin, 2% fetal bovine serum, 0.2% Triton X100 in PBS) was added to all wells for two hours, then removed and replaced with blocking buffer containing antibody against Tom20 overnight. After washing with PBS, secondary antibody (Donkey anti-mouse conjugated to Cy3) was added along with DAPI to mark nuclei, and incubated two hours. After again washing with PBS, cells were imaged using GE INCell 6000 at 40× and quantified using HCA-based quantification algorithm of fluorescence density×area normalized to the number of nuclei.

USP30 [3] = target: T1, USP30 (Homo sapiens (Human), UniProt Q70CQ3); experiment: Dundee MALDI-TOF mass spectrometry assay (IC50); format: biochemical; settings: USP30 25 ng/μl, K48-linked diubiquitin 5.6 μM
Outline: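 USP30 (25 ng/μl) preincubated with compound 5 min at RT in Tris/BSA/DTT buffer, then K48-linked diubiquitin (5.6 μM) added for 45 min at RT. Stopped with 2% TFA; cleavage quantified by MALDI-TOF mass spectrometry to give IC50.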

USP30 [4] = target: T1, USP30; experiment: Dundee MALDI-TOF mass spectrometry assay (% DUB activity remaining at 1 μM); format: biochemical; settings: % DUB activity remaining at compound concentration of 1 μM; avg; read-out: Dundee % Activity at 1 μM (avg in vitro MS assay)
Procedure: Compounds were tested in a MALDI-TOF assay based on the paper by Ritorto et al. (Ritorto et al. Screening of DUB activity and specificity by MALDI-TOF mass spectrometry. Nat. Commun. 5:4763).
USP30 (25 ng/μl) tested against K48-linked diubiquitin (5.6 μM). USP30 was diluted in a buffer containing 40 mM Tris, 0.01% BSA, 1 mM DTT and K48 in 40 mM Tris, 0.01% BSA.
The compounds were pre-incubated with the USP30 for 5 mins at room temp before the K48 dimer addition. The assay mixture was then incubated for 45 mins at room temp. The assay was stopped by the addition of TFA to a final concentration of 2% (v/v).
Acidified samples of the DUB assays were mixed with 0.5 mM 15N-ubiquitin and then with one part of 2% (v/v) TFA and one part of 2,5 DHAP matrix solution (7.6 mg of 2,5 DHAP in […] ethanol and […] of an aqueous 12 mg ml 1 diammonium hydrogen citrate). Then 250 nl of these solutions were spotted onto an MTP AnchorChip 1,536 TF and this is analysed on the Bruker rapifleX MALDI-TOF.
Table 22 presents the Dundee MALDI-TOF values expressed as % DUB activity remaining at a compound concentration of 1 μM.

[5] = USP30 IC50 μM (avg), Ubiquitin-Rhodamine substrate 25 nM, 1.5 nM recombinant USP30
[6] = read-out: USP30 IC50 μM (avg), Ubiquitin-Rhodamine substrate 25 nM, 1.5 nM recombinant USP30
[7] = avg, read-out: Dundee IC50 μM (avg in vitro MS assay)

Sequence of recombinant USP30 (amino acids 57-517 of the human sequence) (Q70CQ3 57-517): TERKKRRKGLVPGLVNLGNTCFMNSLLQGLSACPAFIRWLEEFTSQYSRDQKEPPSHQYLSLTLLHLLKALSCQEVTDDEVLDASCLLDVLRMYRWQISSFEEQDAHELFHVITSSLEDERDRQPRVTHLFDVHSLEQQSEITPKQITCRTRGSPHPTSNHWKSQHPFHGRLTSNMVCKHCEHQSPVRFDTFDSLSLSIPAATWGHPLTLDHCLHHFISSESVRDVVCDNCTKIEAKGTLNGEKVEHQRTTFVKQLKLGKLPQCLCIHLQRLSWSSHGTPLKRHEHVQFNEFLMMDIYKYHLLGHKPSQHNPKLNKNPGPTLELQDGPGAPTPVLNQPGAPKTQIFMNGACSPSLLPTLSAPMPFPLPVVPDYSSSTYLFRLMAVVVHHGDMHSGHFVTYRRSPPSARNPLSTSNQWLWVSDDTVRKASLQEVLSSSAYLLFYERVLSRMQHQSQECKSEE
T1 sequence (Q70CQ3 whole entry): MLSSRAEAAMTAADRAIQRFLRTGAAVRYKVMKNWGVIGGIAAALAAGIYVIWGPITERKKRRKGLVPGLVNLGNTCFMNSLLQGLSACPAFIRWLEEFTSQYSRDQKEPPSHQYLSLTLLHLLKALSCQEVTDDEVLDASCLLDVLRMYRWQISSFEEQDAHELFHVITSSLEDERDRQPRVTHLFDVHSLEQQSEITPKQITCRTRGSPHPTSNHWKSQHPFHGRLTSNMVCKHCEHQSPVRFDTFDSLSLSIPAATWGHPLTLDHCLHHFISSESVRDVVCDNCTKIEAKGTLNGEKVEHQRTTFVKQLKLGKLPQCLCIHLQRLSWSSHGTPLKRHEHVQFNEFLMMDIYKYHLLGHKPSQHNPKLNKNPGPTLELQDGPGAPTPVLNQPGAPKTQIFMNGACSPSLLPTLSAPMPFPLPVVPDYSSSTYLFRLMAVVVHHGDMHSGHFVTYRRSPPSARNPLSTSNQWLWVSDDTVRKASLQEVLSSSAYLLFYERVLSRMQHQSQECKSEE

Structure (SMILES) | IC50 [1, 5] | IC50 [1, 6] | IC50 [2] | IC50 (USP30 [3]; [7]) | IC50 (USP30 [3]; Dundee IC50 μM (avg in vitro MS assay)) | activity at 1 µM (USP30 [4])
O=C(N[C@@H](Cc1ccccc1)C(=O)Nc1ccc(S(=O)(=O)NC23CC(C2)C3)cc1)c1ccc(F)cc1 [Compound I-11, (S)-N-(1-(4-(N-Bicyclo[1.1.1]pentan-1-ylsulfamoyl)phenylamino)-1-oxo-3-phenylpropan-2-yl)-4-fluorobenzamide] | 0.05 to 1 µM | 0.05 to 1 µM | ≤ 0.5 µM | < 0.05 µM and 0.05 to 1 µM | – | –
CC(C)(C)NS(=O)(=O)c1ccc(NC(=O)C2Cc3ccccc3CN2C(=O)c2ccc(F)cc2)cc1 (stereo not shown) [Compound I-22, N-(4-(N-tert-Butylsulfamoyl)phenyl)-2-(4-fluorobenzoyl)-1,2,3,4-tetrahydroisoquinoline-3-carboxamide] | 1 to 10 µM | – | > 10 µM | – | 0.05 to 1 µM | 0 to 25%
O=C(N[C@@H](Cc1ccccc1)C(=O)Nc1ccc(S(=O)(=O)NC2CCOCC2)cc1)c1ccc(F)cc1 [Compound I-34, (S)-4-fluoro-N-(1-oxo-3-phenyl-1-(4-(N-(tetrahydro-2H-pyran-4-yl)sulfamoyl)phenylamino)propan-2-yl)benzamide] | – | < 0.05 µM | ≤ 0.5 µM | < 0.05 µM | – | –
CN(C(=O)c1ccc(F)cc1)[C@@H](Cc1ccccc1)C(=O)Nc1ccc(S(=O)(=O)NC(C)(C)C)cc1 [Compound I-35, (S)-N-(1-(4-(N-tert-Butylsulfamoyl)phenylamino)-1-oxo-3-phenylpropan-2-yl)-4-fluoro-N-methylbenzamide] | 0.05 to 1 µM and 1 to 10 µM | – | – | 0.05 to 1 µM | – | 0 to 25%
CC(C)(C)NS(=O)(=O)c1ccc(NC[C@H](O)[C@H](Cc2ccccc2)NC(=O)c2ccc(F)cc2)cc1 [Compound I-41, N-((2S,3S)-4-(4-(N-tert-butylsulfamoyl)phenylamino)-3-hydroxy-1-phenylbutan-2-yl)-4-fluorobenzamide] | 1 to 10 µM | – | – | 1 to 10 µM | – | 25 to 50%
CC(C)(C)NS(=O)(=O)c1ccc(NC(=O)C2Cc3cnccc3CN2C(=O)c2ccc(F)cc2)cc1 (stereo not shown) [Compound I-50, N-(4-(N-tert-butylsulfamoyl)phenyl)-2-(4-fluorobenzoyl)-1,2,3,4-tetrahydro-2,6-naphthyridine-3-carboxamide] | 1 to 10 µM | – | – | 1 to 10 µM | – | 50 to 75%
CCNS(=O)(=O)c1ccc(NC(=O)[C@H](Cc2ccccc2)N(C)C(=O)c2ccc(F)cc2)cc1 [Compound I-51, (S)-N-(1-(4-(N-ethylsulfamoyl)phenylamino)-1-oxo-3-phenylpropan-2-yl)-4-fluoro-N-methylbenzamide] | 1 to 10 µM | – | – | 1 to 10 µM | – | > 75%
O=C(N[C@@H](Cc1ccccc1)C(=O)Nc1ccc(S(=O)(=O)NC2COC2)cc1)c1ccc(F)cc1 [Compound I-64, (S)-4-fluoro-N-(1-(4-(N-oxetan-3-ylsulfamoyl)phenylamino)-1-oxo-3-phenylpropan-2-yl)benzamide] | 0.05 to 1 µM | – | – | < 0.05 µM | – | 0 to 25%
CN1CC(NS(=O)(=O)c2ccc(NC(=O)[C@H](Cc3ccccc3)NC(=O)c3ccc(F)cc3)cc2)C1 [Compound I-65, (S)-4-fluoro-N-(1-(4-(N-(1-methylazetidin-3-yl)sulfamoyl)phenylamino)-1-oxo-3-phenylpropan-2-yl)benzamide] | 0.05 to 1 µM | – | – | 0.05 to 1 µM | – | 0 to 25%
O=C(N[C@@H](Cc1ccccc1)C(=O)Nc1ccc(S(=O)(=O)NC2CCCC2)cc1)c1cccnc1 [Compound I-80, (S)-N-(1-(4-(N-cyclopentylsulfamoyl)phenylamino)-1-oxo-3-phenylpropan-2-yl)nicotinamide] | 0.05 to 1 µM | – | 1 to 10 µM | 0.05 to 1 µM | – | –
Cc1cc(S(=O)(=O)NC(C)(C)C)ccc1NC(=O)[C@H](Cc1ccccc1)NC(=O)c1ccc(F)cc1 [Compound I-93, (S)-N-(1-(4-(N-tert-butylsulfamoyl)-2-methylphenylamino)-1-oxo-3-phenylpropan-2-yl)-4-fluorobenzamide] | – | < 0.05 µM | 0.5 to 1 µM | 0.05 to 1 µM | – | –
O=C(N[C@@H](Cc1ccccc1)C(=O)Nc1ccc(S(=O)(=O)NC23CC(C2)C3)nc1)c1ccc(F)cc1 [Compound I-104, (S)-N-(1-(6-(N-bicyclo[1.1.1]pentan-1-ylsulfamoyl)pyridin-3-ylamino)-1-oxo-3-phenylpropan-2-yl)-4-fluorobenzamide] | 0.05 to 1 µM | – | ≤ 0.5 µM | < 0.05 µM | – | –
O=C(N[C@@H](Cc1ccccc1)C(=O)Nc1ccc(S(=O)(=O)NC2CCOCC2)nc1)c1ccc(F)cc1 [Compound I-107, (S)-4-fluoro-N-(1-oxo-3-phenyl-1-(6-(N-(tetrahydro-2H-pyran-4-yl)sulfamoyl)pyridin-3-ylamino)propan-2-yl)benzamide] | – | < 0.05 µM | 0.5 to 1 µM | < 0.05 µM | – | –
O=C(N[C@@H](Cc1ccccc1)C(=O)Nc1cccc2c(S(=O)(=O)NC3COC3)cccc12)C1CCCCC1 [Compound I-130, (S)-N-(1-(5-(N-oxetan-3-ylsulfamoyl)naphthalen-1-ylamino)-1-oxo-3-phenylpropan-2-yl)cyclohexanecarboxamide] | 0.05 to 1 µM | – | > 10 µM | 0.05 to 1 µM | – | –
CC(C)(CO)NS(=O)(=O)c1ccc(NC(=O)[C@H](Cc2ccccc2)NC(=O)c2ccc(F)cc2)cc1 [Compound I-137, (S)-4-fluoro-N-(1-(4-(N-(1-hydroxy-2-methylpropan-2-yl)sulfamoyl)phenylamino)-1-oxo-3-phenylpropan-2-yl)benzamide] | – | < 0.05 µM | ≤ 0.5 µM | < 0.05 µM | – | –
O=C(N[C@@H](Cc1ccccc1)C(=O)Nc1ccc(S(=O)(=O)N[C@@H]2CCOC2)cc1)c1ccc(F)cc1 [Compound I-175, 4-fluoro-N-((S)-1-oxo-3-phenyl-1-(4-(N-((R)-tetrahydrofuran-3-yl)sulfamoyl)phenylamino)propan-2-yl)benzamide] | – | < 0.05 µM | ≤ 0.5 µM | – | – | –
